Reference: publication PMC5021374, “An Arginine Finger Regulates the Sequential Action of Asymmetrical Hexameric ATPase in the Double-Stranded DNA Translocation Motor” (Molecular and Cellular Biology, 2016)

Key:
[1] = biological target: T1, gp16 ATPase (ϕ29 motor ATPase gp16) (Bacillus phage phi29, UniProt P11014); test: intrinsic tryptophan fluorescence (SUMO-gp16); also trypsin probing (His-gp16); type: binding; conditions: 2 mM Tris pH 8.0, 0.005% Tween 20, 1.5% PEG 8000, 0.5% acetone; excitation 280 nm
T1 construct: gene 16; full-length gp16 with tags: SUMO-gp16 (Trp fluorescence), His-gp16 (trypsin probing), eGFP-gp16 (EMSA; N-terminal eGFP); homohexamer, monomer/dimer mixture in solution
T1 sequence (P11014 1-332): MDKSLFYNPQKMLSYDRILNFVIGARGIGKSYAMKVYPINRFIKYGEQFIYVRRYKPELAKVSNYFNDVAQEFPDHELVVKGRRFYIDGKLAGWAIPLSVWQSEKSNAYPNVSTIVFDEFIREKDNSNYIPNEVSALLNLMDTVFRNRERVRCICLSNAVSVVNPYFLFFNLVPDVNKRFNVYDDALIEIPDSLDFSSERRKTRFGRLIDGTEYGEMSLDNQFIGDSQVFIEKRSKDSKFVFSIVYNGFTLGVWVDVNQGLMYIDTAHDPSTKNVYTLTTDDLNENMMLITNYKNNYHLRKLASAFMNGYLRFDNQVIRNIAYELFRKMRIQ

[2] = biological target: T1, gp16 ATPase (ϕ29 motor ATPase gp16); test: fluorescent phosphate binding protein assay of ATP hydrolysis; type: biochemical; conditions: DNA-dependent ATPase; tag in this assay not stated
[3] = biological target: T1, gp16 ATPase (ϕ29 motor ATPase gp16); test: EMSA with 33-bp Cy5-dsDNA (nucleotide-dependent DNA binding; indirect); conditions: nonhydrolysable ATP analog; 33-bp Cy5-dsDNA present; ambient temperature, 20 min

Row | SMILES | intrinsic tryptophan fluorescence (SUMO-gp16); also trypsin probing (His-gp16) [1] | fluorescent phosphate binding protein assay of ATP hydrolysis [2] | EMSA with 33-bp Cy5-dsDNA (nucleotide-dependent DNA binding; indirect) [3]
1 | Nc1ncnc2c1ncn2[C@@H]1O[C@H](COP(=O)(O)OP(=O)(O)OP(=O)(O)O)[C@@H](O)[C@H]1O [ATP] | both assays indicated a conformational change in the gp16-ATP complex | a phosphate binding protein conjugated to a fluorescent probe ... was used to assay ATP hydrolysis | –
2 | Nc1ncnc2c1ncn2[C@@H]1O[C@H](COP(=O)(O)OP(=O)(O)OP(O)(O)=S)[C@@H](O)[C@H]1O [γ-S-ATP] | – | – | Stronger binding of gp16 to dsDNA was observed when gp16 was incubated with γ-S-ATP
